# Laboratory results: article PMC7246765, “Development of a Radiofluorinated Adenosine A2B Receptor Antagonist as Potential Ligand for PET Imaging” (International Journal of Molecular Sciences, 2020)
# Where “and” joins values, the source holds several entries; their conditions need not be identical. Identical values can stand only once.
# Columns and labels:
# [1] = design: method as in PMID 20138516; conditions: in vitro, rat hepatic microsomes; cited from earlier work
# [2] = target: T1, human adenosine A1 receptor (Homo sapiens, UniProt P30542); experiment: Competitive radioligand binding with [3H]CCPA, membranes of CHO or HEK cells; conditions: for Ki: [3H]CCPA, mean ± SEM of three independent assays; for Selectivity Ratio Ki(Ax)/Ki(A2B): A1/A2B: ratio of Ki values
# T1 construct: host or cells: CHO or HEK cells
# T1 sequence (P30542 1-326): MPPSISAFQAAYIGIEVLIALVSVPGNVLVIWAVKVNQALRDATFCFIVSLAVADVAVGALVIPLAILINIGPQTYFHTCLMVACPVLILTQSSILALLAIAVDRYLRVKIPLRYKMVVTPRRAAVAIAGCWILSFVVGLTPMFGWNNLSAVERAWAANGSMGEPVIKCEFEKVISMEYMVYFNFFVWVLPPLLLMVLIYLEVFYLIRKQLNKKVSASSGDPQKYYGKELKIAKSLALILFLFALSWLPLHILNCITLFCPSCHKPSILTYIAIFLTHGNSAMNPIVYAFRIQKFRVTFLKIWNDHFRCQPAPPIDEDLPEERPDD
# Experimental: (§1) The binding affinities of 2 and 9 at the four human adenosine receptor subtypes A2B, A2A, A1, and A3, presented in Table 1, were determined in competitive binding assays using appropriate radioligands and membrane preparations of Chinese hamster ovary (CHO) cells or human embryonic kidney (HEK) cells, respectively, recombinantly expressing the corresponding human receptor subtype.
# (§2) Membrane preparations of recombinant CHO or HEK (human embryonic kidney) cells expressing the respective human adenosine receptor subtype were obtained according to Borrman et al. or purchased from Perkin Elmer, Germany. Radioligand binding assays using human A1, A2A, A2B and A3 receptors were performed according to Alnouri et al..
# [^3H]2-Chloro-N^6cyclopentyladenosine ([^3H]CCPA, molar activity: 58 Ci/mmol, 1 nM [28]) for the A1 receptor,
# (§3) [^3H](R)-8-ethyl-4-methyl-2-(phenyl)1,4,7,8-tetrahydro-5H-imidazo[2,1-i]purin-5-one ([^3H]PSB-11, molar activity: 53 Ci/mmol, 1 nM [30]) for the A3 receptor. Three separate experiments were performed to determine the Ki values. All data were analyzed with GraphPad Prism, Version 4.1 (GraphPad Inc., La Jolla, CA,USA).
# [3] = target: T2, human adenosine A2A receptor (Homo sapiens, UniProt P29274); experiment: Competitive radioligand binding with [3H]MSX-2, membranes of CHO or HEK cells; conditions: for Ki: [3H]MSX-2, mean ± SEM of three independent assays; for Selectivity Ratio Ki(Ax)/Ki(A2B): A2A/A2B: ratio of Ki values
# T2 construct: host or cells: CHO or HEK cells
# Experimental: as §1, §2
# [^3H]3-(3-hydroxypropyl)-7-methyl-8-(m-methoxystyryl)-1-propargylxanthine, ([^3H]MSX-2, molar activity: 84 Ci/mmol, 1 nM [29]) for the A2A receptor,
# as §3
# [4] = target: T3, human adenosine A3 receptor (Homo sapiens, UniProt P0DMS8); experiment: Competitive radioligand binding with [3H]PSB-11, membranes of CHO or HEK cells; conditions: for Ki: [3H]PSB-11, mean ± SEM of three independent assays; for Selectivity Ratio Ki(Ax)/Ki(A2B): A3/A2B: ratio of Ki values
# T3 construct: host or cells: CHO or HEK cells
# T3 sequence (P0DMS8 1-318): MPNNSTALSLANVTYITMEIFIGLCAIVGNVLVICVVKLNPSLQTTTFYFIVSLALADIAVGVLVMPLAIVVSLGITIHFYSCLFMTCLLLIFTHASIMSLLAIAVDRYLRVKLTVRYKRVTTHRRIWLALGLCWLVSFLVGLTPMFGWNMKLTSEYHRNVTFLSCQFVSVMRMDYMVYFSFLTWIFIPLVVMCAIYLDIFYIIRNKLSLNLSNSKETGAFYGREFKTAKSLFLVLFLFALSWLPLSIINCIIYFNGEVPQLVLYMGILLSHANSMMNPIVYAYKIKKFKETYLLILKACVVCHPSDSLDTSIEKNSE
# Experimental: as §1, §2, §3
# [5] = target: T4, human adenosine A2B receptor (Homo sapiens, UniProt P29275); experiment: Competitive radioligand binding with [3H]PSB-603, membranes of CHO or HEK cells; conditions: mean ± SEM of three independent assays
# T4 construct: host or cells: CHO or HEK cells
# T4 sequence (P29275 1-332): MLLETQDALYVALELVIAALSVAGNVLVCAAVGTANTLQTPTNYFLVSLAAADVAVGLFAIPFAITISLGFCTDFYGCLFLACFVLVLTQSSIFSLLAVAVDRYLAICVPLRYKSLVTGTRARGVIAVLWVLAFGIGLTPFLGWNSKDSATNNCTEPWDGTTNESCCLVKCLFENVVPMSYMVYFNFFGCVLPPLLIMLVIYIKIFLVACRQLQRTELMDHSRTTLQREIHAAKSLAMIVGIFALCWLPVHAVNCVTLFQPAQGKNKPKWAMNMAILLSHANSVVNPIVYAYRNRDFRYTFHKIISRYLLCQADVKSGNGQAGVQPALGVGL
# Experimental: as §1, §2
# [^3H]8-(4-[4-(4-chlorophenyl)piperazine-1-sulfonyl]phenyl)-1-propyl-2,3,6,7-tetrahydro-1H-purine-2,6-dione ([^3H]PSB-603, molar activity: 73Ci/mmol, 0.3 nM [26]) for the A2B receptor, and
# as §3
# [6] = design: method as in PMID 30104122; conditions: mice, 30 min p.i.; cited from earlier work
# [7] = Shake-flask lipophilicity, n-octanol/phosphate-buffered saline; format: physicochemical; conditions: n-octanol/PBS, n = 4
# From the text: The partition coefficient of [^18F]9 was experimentally determined for the n-octanol/PBS system by the shake-flask method as described previously.
# [8] = Dynamic small-animal PET biodistribution, baseline and blocking with compound 2; format: in vivo, female CD-1 mice; conditions: for SUV 60 min p.i. lung / TAC peak SUV lung: single animals, n = 2
# From the text: We then performed a pilot study to estimate very basic characteristics of the pharmacokinetics of the new radiotracer via dynamic small-animal PET imaging with [^18F]9 in female CD-1 mice. The time–activity curves (TACs) obtained in different tissues under both baseline (administration of vehicle, n = 2) and blocking (administration of compound 2, n = 2) conditions are presented in Figure 3; the whole-body maximum intensity projections are shown in Figure S3 in the Supplementary Material. The overall biodistribution of [^18F]9 under baseline conditions corresponded to the known quite ubiquitous but physiologically not very dense expression of A2B receptors. Although higher levels of the A2B receptor protein have been reported in the literature for certain cell types, such as alveolar epithelial cells and endothelial cells, the resemblance of the TACs in peripheral organs such as lungs under baseline and blocking conditions indicated no target-specific retention of [^18F]9 (TAC peak SUV lung: 3.09 and 2.88 vs. 2.30 and 1.57, resp.; SUV60 min p.i., lung: 0.44 and 0.25 vs. 0.32 and 0.20, resp.). […] This discrepancy between our and Petroni’s results might indicate differences in the biological effects exerted by agonistic (BAY60-6583) or antagonistic (compound 2) A2B receptor ligands, as well as model-related differences such as the expression of A2B receptors. The latter option could also explain the about 10-fold lower uptake of [^18F]9 in the brown adipose tissue (BAT) of female CD-1 mice in comparison to the uptake of [^11C]-4 in the BAT of male Wistar rats.
# The biodistribution of the radiotracer was assessed in female CD-1 mice (30.6 ± 0.4 g bodyweight) using a dedicated small-animal PET-MRI scanner (nanoScan, Mediso, Hungary) over 60 min followed by a subsequent T1-weighted MR. The anaesthetized (2% isoflurane, carrier gas mixture of 40% air and 60% O2) female CD-1 mice were kept on a heated animal bed to maintain body temperature during imaging. Vehicle (10% DMSO in isotonic 0.9% NaCl solution) or compound 2 at 1 mg/kg bodyweight were co-injected with the tracer ([^18F]9: injected dose of 6.9 ± 0.1 MBq, equivalent to 10.4 ± 0.9 fmol/g bodyweight) intravenously 20 seconds after starting the dynamic PET acquisition, performed in normal mode and with a coincidence mode 1–5. For subsequent dynamic reconstructions (Nucline v2.01, Mediso, Hungary) by Ordered Subset Expectation Maximization (OSEM3D) with an attenuation correction with four iterations, six subsets, and a voxel size of 0.4 mm^3, list mode data were sorted into sinograms (12 × 10 s, 6 × 30 s, 5 × 60 s, and 10 × 300 s). PMOD software (v4.005, PMOD Technologies LLC, Zurich, Switzerland) was used for analysis of reconstructed studies and the results are expressed as standardized uptake value (SUV) given in mean ± SD.
# [9] = In vivo metabolism in mice, plasma and urine analysed by RP-HPLC and MLC; design: species or system CD-1 mice; conditions: 30 min p.i.
# Experimental: The metabolism of [^18F]9 in vivo was investigated in CD-1 mice by taking blood and urine samples at 30 min post i.v. injection of the radiotracer (n = 2). Analysis of the respective samples was performed by micellar (MLC) and reversed-phase chromatography (RP-HPLC) as two complementary HPLC methods. MLC is also a reversed-phase HPLC mode, but it uses a mobile phase consisting of an aqueous solution with a surfactant above its critical micellar concentration. The formed micelles are able to dissolve the proteins and other components of a biological sample and therefore enable a direct injection of the plasma probe into the HPLC system without eliminating the tissue matrix. In contrast, for RP-HPLC analysis, aliquots of the plasma samples were treated with a mixture of ACN/water to precipitate the proteins, resulting in recoveries of activity of about 93%.
# For metabolism studies (n = 2), [^18F]9 (30–40 MBq) was administered as a bolus in awake female CD-1 mice (10–12 weeks, 25–32 g) via the tail vein. At 30 min p.i., the animals were slightly anesthetized with isoflurane, and blood was sampled from retro-orbital plexus. Blood plasma was obtained as a supernatant after centrifugation of the whole blood samples (14,000 rpm, 1 min; Centrifuge 5418, Eppendorf Vertrieb Deutschland GmbH, Wesseling-Berzdorf, Germany). After cervical luxation of the animals, urine samples were obtained. All samples were weighed and the respective activity measured in a dose calibrator (ISOMED 2010; MED Nuklear-Medizintechnik Dresden GmbH, Dresden, Germany).
# MLC: For preparation of the MLC samples, mouse plasma (20–50 µL) was dissolved in 200 µL of 200 mM aq. sodium dodecyl sulfate (SDS) and injected into the MLC system. The MLC system was built up as described previously. Separations were performed using a Reprosil-Pur C18-AQ column (250 × 4.6 mm + 10 mm pre-column, particle size: 10 µm) and an eluent mixture of EtOH/100 mM aq. SDS/25 mM (NH4)2HPO4 in gradient mode (0–10 min at 100% 100 mM aq. SDS, 10–15 min up to 10% EtOH, 15–20 min at 10% EtOH, 20–21 min up to 100% 100 mM aq. SDS; 21–30 min at 100% 100 mM aq. SDS) at a flow rate of 1.0 mL/min. The same HPLC apparatus was used as described in the radiochemistry part in generals.
# RP-HPLC: Protein precipitation was performed by addition of an ice-cold mixture of ACN/water (9/1; v/v) in a ratio of 4:1 (v/v) of organic solvent to plasma. The sample workup was performed according to a procedure previously described in detail. The urine samples were diluted with water and directly injected. To analyze the samples, the same HPLC apparatus and method was used as described in the radiochemistry section.
# [10] = blocking (compound 2, 1 mg/kg co-injected)
# T2 sequence (P29274 whole entry): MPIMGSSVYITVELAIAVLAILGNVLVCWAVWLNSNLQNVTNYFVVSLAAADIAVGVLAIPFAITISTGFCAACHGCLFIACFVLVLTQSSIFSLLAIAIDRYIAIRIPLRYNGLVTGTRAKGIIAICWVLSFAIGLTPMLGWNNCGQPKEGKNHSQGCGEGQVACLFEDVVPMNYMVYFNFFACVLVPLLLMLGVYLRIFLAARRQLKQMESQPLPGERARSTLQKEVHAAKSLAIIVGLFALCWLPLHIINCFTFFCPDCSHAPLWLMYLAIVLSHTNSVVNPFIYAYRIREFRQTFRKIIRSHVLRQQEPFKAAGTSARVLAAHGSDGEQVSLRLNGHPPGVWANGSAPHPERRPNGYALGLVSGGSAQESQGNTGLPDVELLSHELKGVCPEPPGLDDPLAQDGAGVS
smiles,measurement,setting,value
"O=c1[nH]c(=O)c2cc(-c3ccncn3)c(-c3ccco3)nc2[nH]1 [Compound 2, 7-(Furan-2-yl)-6-(pyrimidin-4-yl)pyrido[2,3-d]pyrimidine-2,4-(1H,3H)-dione]",metabolic stability,[1],high metabolic stability
same,Ki,[2],> 1000 nM
same,Selectivity Ratio Ki(Ax)/Ki(A2B): A1/A2B,[2],> 400
same,Ki,[3],98.8 ± 28.3 nM
same,Selectivity Ratio Ki(Ax)/Ki(A2B): A2A/A2B,[3],39
same,Ki,[4],> 1000 nM
same,Selectivity Ratio Ki(Ax)/Ki(A2B): A3/A2B,[4],> 400
same,Ki,[5],2.51 ± 1.1 nM
"O=c1[nH]c(=O)c2cc(-c3ccnc(F)c3)c(-c3ccco3)nc2[nH]1 [Compound 9, 6-(2-Fluoropyridin-4-yl)-7-(furan-2-yl)pyrido[2,3-d]pyrimidine-2,4(1H,3H)-dione]",Ki,[2],149 ± 26 nM
same,Selectivity Ratio Ki(Ax)/Ki(A2B): A1/A2B,[2],59
same,Ki,[3],107 ± 15 nM
same,Selectivity Ratio Ki(Ax)/Ki(A2B): A2A/A2B,[3],43
same,Ki,[4],286 ± 10 nM
same,Selectivity Ratio Ki(Ax)/Ki(A2B): A3/A2B,[4],114
same,Ki,[5],2.51 ± 0.58 nM
O=C(Nc1cnc(-c2ccnc([18F])c2)c(-c2ccccc2F)n1)C1CC1 [[^18F]1],intact radiotracer in plasma,[6],35%
O=c1[nH]c(=O)c2cc(-c3ccnc([18F])c3)c(-c3ccco3)nc2[nH]1 [[^18F]9],logD,[7],1.4 ± 0.1
same,SUV 60 min p.i. lung,[8]; baseline (vehicle),0.44 and 0.25
same,TAC peak SUV lung,[8]; baseline (vehicle),3.09 and 2.88
same,SUV brain after 60 min p.i.,"[8]; baseline, mean (single values)",0.11 (0.14 and 0.08)
same,initial TAC peak SUV brain,"[8]; baseline, mean (single values)",0.19 (0.20 and 0.17)
same,SUV 60 min p.i. lung,[8]; [10],0.32 and 0.20
same,TAC peak SUV lung,[8]; [10],2.30 and 1.57
same,TAC peak SUV brain,"[8]; co-administration of compound 2, mean (single values)",0.12 (0.11 and 0.13)
same,fold lower uptake in brown adipose tissue (BAT) versus [11C]-4 in BAT of male Wistar rats,"[8]; female CD-1 mice, comparison with ref 13",about 10 fold
same,activity concentration in urine (SUV),[9]; CD-1 mice,75
same,"intact radiotracer, fraction of total activity in plasma","[9]; CD-1 mice, i.v., n = 2",about 60%
same,"intact tracer in plasma, RP-HPLC, calculated considering the 93% recovery",[9]; mouse plasma,60%
same,"intact radiotracer in plasma, MLC","[9]; mouse plasma, exemplary MLC chromatogram",57%
same,"intact radiotracer in plasma, RP-HPLC","[9]; mouse plasma, exemplary RP-HPLC chromatogram",64%
